# Data reported in US20250000826A1, “APPLICATION OF BENZANILIDE COMPOUND IN TUMOR TREATMENT” (NANJING SHIJIANG MEDICINE TECHNOLOGY CO., LTD, priority 2021, published 2025).
# pIC50: −log10 of the molar value.
# Columns and labels:
# Assay type in all cases: cell-based
# [1] = tested on: WSU-DLCL2 (human diffuse large B-cell lymphoma); assay: CellTiter-Glo cell viability, WSU-DLCL2; details: WSUDLCL2, WSU-DLCL2, sensitive group, 3-4 days of culture, n=3, read-out: IC50 (μM), inhibitory effect on cell line
# Method: (§1) Cell viability was detected using the Promega CellTiter-Glo kit, cell viability was determined by directly measuring intracellular ATP content. In the experiment, the IC50 value of niclosamide on various tumor cell lines was determined. Each tumor cell was cultured separately in relevant medium (+p/s), and was incubated for 3 h, then the gradient diluted niclosamide was added. After 3-4 days of culture, the relevant IC50 (50% inhibiting concentration) was measured (n=3). The name, source and culture conditions of each tumor cell line were as follows: Cell line NCI-H82 (ATCC, No. HTB-175) was cultured in 10% fetal bovine serum-containing RPMI1640 medium (+P/S). Cell line WSU-DLCL2 (DSMZ, No. ACC-575) was cultured in 10% fetal bovine serum-containing RPMI1640 medium (+P/S).
# [2] = tested on: SF-126 (human glioblastoma multiforme cell); assay: CellTiter-Glo cell viability, SF-126; details: SF-126, insensitive group, 3-4 days of culture, n=3, read-out: IC50 (μM), inhibitory effect on cell line
# Method: Cell viability was detected using the Promega CellTiter-Glo kit, cell viability was determined by directly measuring intracellular ATP content. In the experiment, the IC50 value of niclosamide on various tumor cell lines was determined. Each tumor cell was cultured separately in relevant medium (+p/s), and was incubated for 3 h, then the gradient diluted niclosamide was added. After 3-4 days of culture, the relevant IC50 (50% inhibiting concentration) was measured (n=3). The name, source and culture conditions of each tumor cell line were as follows: Cell line NCI-H82 (ATCC, No. HTB-175) was cultured in 10% fetal bovine serum-containing RPMI1640 medium (+P/S). Cell line SF126 (JCRB. No. 1F050286) was cultured in 10% fetal bovine serum-containing EMEM medium (+P/S).
# [3] = tested on: G-401 (human renal carcinoma Wilms cell); assay: CellTiter-Glo cell viability, G-401; details: G-401, sensitive group, 3-4 days of culture, n=3, read-out: IC50 (μM), inhibitory effect on cell line
# Method: Cell viability was detected using the Promega CellTiter-Glo kit, cell viability was determined by directly measuring intracellular ATP content. In the experiment, the IC50 value of niclosamide on various tumor cell lines was determined. Each tumor cell was cultured separately in relevant medium (+p/s), and was incubated for 3 h, then the gradient diluted niclosamide was added. After 3-4 days of culture, the relevant IC50 (50% inhibiting concentration) was measured (n=3). The name, source and culture conditions of each tumor cell line were as follows: Cell line NCI-H82 (ATCC, No. HTB-175) was cultured in 10% fetal bovine serum-containing RPMI1640 medium (+P/S). Cell line G401 (ATCC, No. CRL-1441) was cultured in 10% fetal bovine serum-containing McCoy's 5a medium (+P/S).
# [4] = tested on: 786-0 (clear cell renal cell adenocarcinoma cell); assay: CellTiter-Glo cell viability, 786-0; details: Homo sapiens; 786-0, insensitive group, 3-4 days of culture, n=3; read-out: IC50 (μM), inhibitory effect on cell line
# Method: as §1, with “786-0 (ATCC,” for “WSU-DLCL2 (DSMZ,”, “CRL-1932)” for “ACC-575)”
# [5] = tested on: MDA-MB-453 (breast cancer cell); assay: CellTiter-Glo cell viability, MDA-MB-453; details: Homo sapiens; MDA-MB-453, sensitive group, 3-4 days of culture, n=3; read-out: IC50 (μM), inhibitory effect on cell line
# Method: (§2) Cell viability was detected using the Promega CellTiter-Glo kit, cell viability was determined by directly measuring intracellular ATP content. In the experiment, the IC50 value of niclosamide on various tumor cell lines was determined. Each tumor cell was cultured separately in relevant medium (+p/s), and was incubated for 3 h, then the gradient diluted niclosamide was added. After 3-4 days of culture, the relevant IC50 (50% inhibiting concentration) was measured (n=3). The name, source and culture conditions of each tumor cell line were as follows: Cell line NCI-H82 (ATCC, No. HTB-175) was cultured in 10% fetal bovine serum-containing RPMI1640 medium (+P/S). Cell line MDA-MB-453 (ATCC, No. HTB-131) was cultured in 10% fetal bovine serum-containing Leibovitz's L-15 medium (+P/S).
# NCI-H82 (Con) cell = assay: CellTiter-Glo cell viability, control NCI-H82 cell; details: Homo sapiens; NCI-H82 transfected with empty virus vector, n=3
# Method: (§3) The NNMT protein-overexpressing NCI-H82 cell (NCI-H82 (ov-NNMT)) was obtained by inserting the NNMT gene into NCI-H82 cell using a viral vector. The control NCI-H82 cell (NCI-H82 (Con)) was obtained by transfecting NCI-H82 cell with empty virus vector without carrying NNMT gene. The IC50 value of niclosamide on control NCI-H82 cell (NCI-H82 (Con)) and NNMT protein-overexpressing NCI-H82 cell (NCI-H82 (ov-NNMT)) was determined using Promega CellTiter-Glo kit which detected cell viability by directly measuring intracellular ATP content (n=3), the experiment result was shown in Table 4 below: […]
# [6] = tested on: NCI-H82 (human small cell lung cancer cell); assay: CellTiter-Glo cell viability, NCI-H82; details: NCI-H82, sensitive group, 3-4 days of culture, n=3, read-out: IC50 (μM), inhibitory effect on cell line
# Method: as §1, with “(+P/S).” for “(+P/S). Cell line WSU-DLCL2 (DSMZ, No. ACC-575) was cultured in 10% fetal bovine serum-containing RPMI1640 medium (+P/S).”
# [7] = tested on: GB-1 (human glioblastoma cell); assay: CellTiter-Glo cell viability, GB-1; details: GB-1, insensitive group, 3-4 days of culture, n=3, read-out: IC50 (μM), inhibitory effect on cell line
# Method: Cell viability was detected using the Promega CellTiter-Glo kit, cell viability was determined by directly measuring intracellular ATP content. In the experiment, the IC50 value of niclosamide on various tumor cell lines was determined. Each tumor cell was cultured separately in relevant medium (+p/s), and was incubated for 3 h, then the gradient diluted niclosamide was added. After 3-4 days of culture, the relevant IC50 (50% inhibiting concentration) was measured (n=3). The name, source and culture conditions of each tumor cell line were as follows: Cell line NCI-H82 (ATCC, No. HTB-175) was cultured in 10% fetal bovine serum-containing RPMI1640 medium (+P/S). Cell line GB-1 (JCRB, No. IF050489) was cultured in 10% fetal bovine serum-containing […] DMEM medium (+P/S).
# NCI-H82 (ov-NNMT) cell = assay: CellTiter-Glo cell viability, NNMT protein-overexpressing NCI-H82 cell; details: Homo sapiens; NCI-H82 with NNMT gene inserted by viral vector, n=3
# Method: as §3
# [8] = tested on: CFPAC-1 (human pancreatic cancer cell); assay: CellTiter-Glo cell viability, CFPAC-1; details: CFPAC-1, insensitive group, 3-4 days of culture, n=3, read-out: IC50 (μM), inhibitory effect on cell line
# Method: Cell viability was detected using the Promega CellTiter-Glo kit, cell viability was determined by directly measuring intracellular ATP content. In the experiment, the IC50 value of niclosamide on various tumor cell lines was determined. Each tumor cell was cultured separately in relevant medium (+p/s), and was incubated for 3 h, then the gradient diluted niclosamide was added. After 3-4 days of culture, the relevant IC50 (50% inhibiting concentration) was measured (n=3). The name, source and culture conditions of each tumor cell line were as follows: Cell line NCI-H82 (ATCC, No. HTB-175) was cultured in 10% fetal bovine serum-containing RPMI1640 medium (+P/S). Cell line CFPAC-1 (ATCC, No. CRL-1918) was cultured in 10% fetal bovine serum-containing IMDM medium (+P/S).
# [9] = tested on: SW48 (human colon adenocarcinoma cell); assay: CellTiter-Glo cell viability, SW48; details: SW48, sensitive group, 3-4 days of culture, n=3, read-out: IC50 (μM), inhibitory effect on cell line
# Method: as §2, with “SW48” for “MDA-MB-453”, “CCL-231)” for “HTB-131)”
smiles,measurement,setting,value
"O=C(Nc1ccc([N+](=O)[O-])cc1Cl)c1cc(Cl)ccc1O [Niclosamide, niclosamide]",IC50,[1],0.21 µM
same,IC50,[2],16.2 µM
same,IC50,[3],0.64 µM
same,IC50,[4],> 50 µM
same,IC50,[5],0.47 µM
same,pIC50,NCI-H82 (Con) cell,6.92
same,IC50,[6],0.13 µM
same,IC50,[7],6.68 µM
same,pIC50,NCI-H82 (ov-NNMT) cell,6.38
same,IC50,[8],> 50 µM
same,IC50,[9],0.72 µM
